Measured values reported in patent US7205295B2, “Benzoxazin-3-ones and derivatives thereof as therapeutic agents” (Warner-Lambert Company LLC, priority 2002, dated 2007).

Target: T1, PI3Kγ (p101/p110γ protein) (Homo sapiens, UniProt P48736)
T1 construct: HA; made in house; host or cells: Spodoptera frugiperda (Sf9) cells, baculovirus co-infection
Assay: PI3Kγ In Vitro Kinase Assay
Assay type: biochemical
Conditions: purified recombinant p101/p110γ with G protein β1/γ2 subunits; 20 μM ATP, 25 μM PIP2; 20 minutes at room temperature
Outline: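 Reactions ran 20 min at room temperature, pairing lipid micelles (25 μM PIP2, 300 μM PE, 0.02% Na-cholate, 10 mM MgCl2) with 20 μM ATP including [γ-32P]ATP. The enzyme was recombinant p101/p110γ (2.7 nM) with G protein β1/γ2 (57.7 nM). [32P]PIP3 product was stopped with H3PO4, filtered and scintillation counted.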

T1 sequence (P48736 whole entry, species assumed): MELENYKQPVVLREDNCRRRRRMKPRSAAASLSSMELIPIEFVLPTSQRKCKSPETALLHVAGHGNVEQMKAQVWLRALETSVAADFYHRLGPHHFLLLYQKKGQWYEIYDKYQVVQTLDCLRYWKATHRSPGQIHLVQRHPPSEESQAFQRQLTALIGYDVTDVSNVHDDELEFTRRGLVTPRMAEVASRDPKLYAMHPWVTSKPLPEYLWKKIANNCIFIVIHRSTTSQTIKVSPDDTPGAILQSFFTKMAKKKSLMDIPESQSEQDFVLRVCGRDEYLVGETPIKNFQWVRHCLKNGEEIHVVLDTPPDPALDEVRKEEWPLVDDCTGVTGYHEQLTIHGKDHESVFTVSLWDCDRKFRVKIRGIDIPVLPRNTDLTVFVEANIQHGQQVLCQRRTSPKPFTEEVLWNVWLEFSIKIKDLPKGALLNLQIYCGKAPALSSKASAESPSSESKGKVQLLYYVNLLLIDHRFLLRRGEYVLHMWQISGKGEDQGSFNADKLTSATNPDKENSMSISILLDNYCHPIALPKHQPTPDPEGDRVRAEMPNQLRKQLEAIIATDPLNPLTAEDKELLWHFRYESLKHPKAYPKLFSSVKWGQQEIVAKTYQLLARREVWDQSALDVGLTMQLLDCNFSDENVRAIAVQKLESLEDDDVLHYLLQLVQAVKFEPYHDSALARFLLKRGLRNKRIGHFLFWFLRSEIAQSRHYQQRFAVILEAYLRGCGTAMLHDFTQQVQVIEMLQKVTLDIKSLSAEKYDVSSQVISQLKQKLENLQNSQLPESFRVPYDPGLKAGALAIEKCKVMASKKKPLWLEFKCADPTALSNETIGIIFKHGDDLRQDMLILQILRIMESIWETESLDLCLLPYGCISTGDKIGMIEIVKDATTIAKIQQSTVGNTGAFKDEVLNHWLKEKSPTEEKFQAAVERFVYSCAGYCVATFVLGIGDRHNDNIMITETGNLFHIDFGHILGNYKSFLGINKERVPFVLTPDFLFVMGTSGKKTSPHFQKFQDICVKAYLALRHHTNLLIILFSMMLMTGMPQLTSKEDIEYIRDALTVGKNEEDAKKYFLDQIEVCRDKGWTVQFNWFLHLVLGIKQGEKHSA
T1 sequence (Q8WYR1 whole entry partner, species assumed): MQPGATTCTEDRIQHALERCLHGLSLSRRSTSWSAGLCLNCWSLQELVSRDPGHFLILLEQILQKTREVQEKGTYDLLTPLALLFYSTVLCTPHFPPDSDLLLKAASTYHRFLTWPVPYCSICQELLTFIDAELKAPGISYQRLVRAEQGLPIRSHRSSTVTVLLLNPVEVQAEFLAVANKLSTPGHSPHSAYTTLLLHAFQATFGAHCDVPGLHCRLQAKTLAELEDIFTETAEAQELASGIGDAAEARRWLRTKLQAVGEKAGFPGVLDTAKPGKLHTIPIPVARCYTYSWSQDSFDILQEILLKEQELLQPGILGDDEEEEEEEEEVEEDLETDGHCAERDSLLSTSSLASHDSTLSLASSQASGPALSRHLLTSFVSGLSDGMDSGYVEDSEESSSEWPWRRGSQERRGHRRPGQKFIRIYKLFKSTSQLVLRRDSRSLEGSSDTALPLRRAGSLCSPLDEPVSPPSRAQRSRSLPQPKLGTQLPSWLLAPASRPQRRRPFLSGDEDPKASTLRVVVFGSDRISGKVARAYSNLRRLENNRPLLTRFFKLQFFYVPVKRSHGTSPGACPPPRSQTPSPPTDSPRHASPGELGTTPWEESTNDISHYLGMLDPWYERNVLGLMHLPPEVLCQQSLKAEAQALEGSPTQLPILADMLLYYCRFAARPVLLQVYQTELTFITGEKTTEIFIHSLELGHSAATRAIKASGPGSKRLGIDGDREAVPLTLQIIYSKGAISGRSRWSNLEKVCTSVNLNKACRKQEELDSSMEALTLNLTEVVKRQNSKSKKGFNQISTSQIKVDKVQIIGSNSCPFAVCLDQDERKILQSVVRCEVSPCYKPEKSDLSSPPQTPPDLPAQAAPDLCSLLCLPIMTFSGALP

SMILES | IC50
O=C1NC(=S)SC1=Cc1ccc2c(c1)N(CCc1cc(C(F)(F)F)cc(C(F)(F)F)c1)C(=O)CO2 [Example 113, 4-[2-(Bis-trifluromethyl-phenyl)-ethyl]-6-(4-oxo-2-thioxo-thiazolidin-5-ylidenmethyl)-4H-benzo[1,4]oxazin-3-one] | 14 nM
Cc1cc(CN2C(=O)COc3ccc(C=C4SC(=S)NC4=O)cc32)cc(-c2ccoc2)c1 [Example 115, 4-(3-Furan-3-yl-5-methyl-benzyl)-6-(4-oxo-2-thioxo-thiazolidin-5-ylidenemethyl)-4H-benzo[1,4]oxazin-3-one] | 15 nM
Cc1cc(CN2C(=O)COc3ccc(C=C4SC(=S)NC4=O)cc32)cc(-c2ccsc2)c1 [Example 116, 4-(3-Methyl-5-thiophene-3-yl-benzyl)-6-(4-oxo-2-thioxo-thiazolidin-5-ylidenemethyl)-4H-benzo[1,4]oxazin-3-one] | 24 nM
Cc1cc(CN2C(=O)COc3ccc(C=C4SC(=S)NC4=O)cc32)cc(-c2c(C)noc2C)c1 [Example 117, 4-[3-(3,5-Dimethyl-isoxazol-4-yl)-5-methyl-benzyl]-6-(4-oxo-2-thioxo-thiazolidin-5-ylidenemethyl)-4H-benzo[1,4]oxazin-3-one] | 40 nM
COC(=O)c1cc(C)cc(CN2C(=O)COc3ccc(C=C4SC(=S)NC4=O)cc32)c1 [Example 118] | 23 nM
Cc1cc(CN2C(=O)COc3ccc(C=C4SC(=S)NC4=O)cc32)cc(-c2nccs2)c1 [Example 119, 4-(3-Methyl-5-thiazol-2-yl-benzyl)-6-(4-oxo-2-thioxo-thiazolidin-5-ylidenemethyl)-4H-benzo[1,4]oxzain-3-one] | 19 nM
Cc1cc(C#N)cc(CN2C(=O)COc3ccc(C=C4SC(=S)NC4=O)cc32)c1 [Example 120] | 30 nM
Cc1cc(CN2C(=O)COc3ccc(C=C4SC(=S)NC4=O)cc32)cc(-c2cnccn2)c1 [Example 121, 4-(3-Methyl-5-pyrazin-2-yl-benzyl)-6-(4-oxo-2-thioxo-thiazolidin-5-ylidenemethyl)-4H-benzo[1,4]oxazin-3-one] | 67 nM
COc1cc(CCCN2C(=O)COc3ccc(C=C4SC(=S)NC4=O)cc32)cc(OC)c1OC [Example 124, 6-(4-Oxo-2-thioxo-thiazolidin-5-ylidenemethyl)-4-[3-(3,4,5-trimethoxy-phenyl)-propyl]-4H-benzo[1,4]oxazin-3-one] | 15 nM
CC(=O)Oc1c(C)cc(CN2C(=O)COc3ccc(C=C4SC(=S)NC4=O)cc32)cc1C [Example 126, Acetic acid 2,6-dimethyl-4-{3-[3-oxo-6-(4-oxo-2-thioxo-thiazolidin-5-ylidenemethyl)-2,3-dihydro-benzo[1,4]oxazin-4-yl]-methyl}-phenyl ester] | 10 nM
Cn1nc(C(C)(C)C)cc1CN1C(=O)COc2ccc(C=C3SC(=S)NC3=O)cc21 [Example 128, 4-(5-tert-Butyl-2-methyl-2H-pyrazol-3-ylmethyl)-6-(4-oxo-2-thioxo-thiazolidin-5-ylidenemethyl)-4H-benzo[1,4]oxazin-3-one] | 180 nM
NC(=O)CN1C(=O)COc2ccc(C=C3SC(=S)NC3=O)cc21 [Example 141, 2-[3-Oxo-6-(4-oxo-2-thioxo-thiazolidin-5-ylidenemethyl)-2,3-dihydrobenzo[1,4]oxazin-4-yl]-acetamide] | 860 nM
O=C1NC(=S)SC1=Cc1ccc2c(c1)N(CC1CCCCC1)C(=O)CO2 [Example 143, 4-Cyclohexylmethyl-6-(4-oxo-2-thioxo-thiazolidin-5-ylidenemethyl)-4H-benzo[1,4]oxazin-3-one] | 35 nM
O=C1NC(=S)SC1=Cc1ccc2c(c1)N(CC1CC1)C(=O)CO2 [Example 145, 4-Cyclopropylmethyl-6-(4-oxo-2-thioxo-thiazolidin-5-ylidenemethyl)-4H-benzo[1,4]oxazin-3-one] | 26 nM
Cc1cc(C)cc(CN2C(=O)COc3ccc(C=C4SC(=S)NC4=O)cc32)c1 [Example 150, 4-(3,5-Dimethyl-benzyl)-6-(4-oxo-2-thioxo-thiazolidin-5-ylidenemethyl)-4H-benzo[1,4]oxazin-3-one] | 5 nM
C[C@@H]1Oc2ccc(C=C3SC(=S)NC3=O)cc2N(Cc2ccc3ccccc3c2)C1=O [Example 152, (S)-2-Methyl-4-naphthalen-2-ylmethyl-6-(4-oxo-2-thioxo-thiazolidin-5-ylidenemethyl)-4H-benzo[1,4]oxazin-3-one] | 1030 nM
Cc1cc(C=C2SC(=S)NC2=O)cc2c1OCC(=O)N2 [Example 154, 8-Methyl-6-(4-oxo-2-thioxo-thiazolidin-5-ylidenemethlyl)-4H-benzo[1,4]oxazin-3-one] | 160 nM
CC(C)(C)CCN1C(=O)COc2ccc(C=C3SC(=S)NC3=O)cc21 [Example 155, 4-(3,3-Dimethyl-butyl)-6-(4-oxo-2-thioxo-thiazolidin-5-ylidenemethyl)-4H-1,4-benzoxazin-3-one] | 10 nM
O=C1NC(=S)SC1=Cc1ccc2c(c1)N(Cc1cccc(OC(F)(F)F)c1)C(=O)CO2 [Example 156, 6-(4-Oxo-2-thioxo-thiazolidin-5-ylidenemethyl)-4-(3-trifluoromethoxy-benzyl)-4H-1,4-benzoxazin-3-one] | 21 nM
O=C1NC(=S)SC1=Cc1ccc2c(c1)N(Cc1ccc(C(F)(F)F)cc1)C(=O)CO2 [Example 158, 6-(4-Oxo-2-thioxo-thiazolidin-5-ylidenemethyl)-4-(4-trifluoromethyl-benzyl)-4H-1,4-benzoxazin-3-one] | 28 nM
O=C1NC(=S)SC1=Cc1ccc2c(c1)N(Cc1ccc(C=Cc3ccccc3)cc1)C(=O)CO2 [Example 162, 6-(4-Oxo-2-thioxo-thiazolidin-5-ylidenemethyl)-4-(4-styryl-benzyl)-4H-1,4-benzoxazin-3-one] | 53 nM

The remaining lines, values ahead:

IC50 | SMILES
5 nM | COc1ccc(CCCN2C(=O)COc3ccc(C=C4SC(=S)NC4=O)cc32)cc1 [Example 122, 4-[3-(4-Methoxy-phenyl)-propyl]-6-(4-oxo-2-thioxo-thiazolidin-5-ylidenemethyl)-4H-benzo[1,4]oxazin-3-one]
7 nM | COc1ccc(CCCN2C(=O)COc3ccc(C=C4SC(=O)NC4=O)cc32)cc1 [Example 123, 5-{4-[3-(4-Methoxy-phenyl)-propyl]-3-oxo-3,4-dihydro-2H-benzo[1,4]oxazin-6-ylmethylene}-thiazolidine-2,4-dione]
43 nM | O=C1NC(=S)SC1=Cc1ccc2c(c1)N(CCCc1cccc(Cl)c1Cl)C(=O)CO2 [Example 127, 4-[3-(2,3-Dichloro-phenyl)-propyl]-6-(4-oxo-2-thioxo-thiazolidin-5-ylidenemethyl)-4H-benzo[1,4]oxazin-3-one]
7 nM | COc1ccc(CCN2C(=O)COc3ccc(C=C4SC(=S)NC4=O)cc32)cc1 [Example 136, 4-[2-(4-Methoxy-phenyl)-ethyl]-6-(4-oxo-2-thioxo-thiazolidin-5-ylidenemethyl)-4H-1,4-benzoxazin-3-one]
29 nM | Cc1ccc(CN2C(=O)COc3ccc(C=C4SC(=S)NC4=O)cc32)cc1 [Example 140, 4-(4-Methyl-benzyl)-6-(4-oxo-2-thioxo-thiazolidin-5-ylidenemethyl)-4H-benzo[1,4]oxazin-3-one]
24 nM | CC(C)CCN1C(=O)COc2ccc(C=C3SC(=S)NC3=O)cc21 [Example 144, 4-(3-Methyl-butyl)-6-(4-oxo-2-thioxo-thiazolidin-5-ylidenemethyl)-4H-benzo[1,4]oxazin-3-one]
30 nM | O=C1NC(=S)SC1=Cc1ccc2c(c1)N(Cc1ccsc1)C(=O)CO2 [Example 146, 6-(4-Oxo-2-thioxo-thiazolidin-5-ylidenemethyl)-4-thiophen-3-ylmethyl-4H-benzo[1,4]oxazin-3-one]
49 nM | O=C1NC(=S)SC1=Cc1ccc2c(c1)N(Cc1ccccn1)C(=O)CO2 [Example 147, 6-(4-Oxo-2-thioxo-thiazolidin-5-ylidenemethyl)-4-pyridin-2-ylmethyl-4H-benzo[1,4]oxazin-3-one]
61 nM | O=C1NC(=S)SC1=Cc1ccc2c(c1)N(Cc1ccncc1)C(=O)CO2 [Example 148, 6-(4-Oxo-2-thioxo-thiazolidin-5-ylidenemethyl)-4-pyridin-4-ylmethyl-4H-benzo[1,4]oxazin-3-one]
21 nM | N#Cc1cccc(CN2C(=O)COc3ccc(C=C4SC(=S)NC4=O)cc32)c1 [Example 149, 3-[3-Oxo-6-(4-oxo-2-thioxo-thiazolidin-5-ylidenemethyl)-2,3-dihydro-benzo[1,4]oxazin-4-ylmethyl]-benzonitrile]
96 nM | COc1cc(C=C2SC(=S)NC2=O)cc2c1OCC(=O)N2Cc1ccccc1 [Example 153, 4-Benzyl-8-methoxy-6-(4-oxo-2-thioxo-thiazolidin-5-ylidenemethyl)-4H-benzo[1,4]oxazin-3-one]
21 nM | O=C1NC(=S)SC1=Cc1ccc2c(c1)N(Cc1cccc(C(F)(F)F)c1)C(=O)CO2 [Example 157, 6-(4-Oxo-2-thioxo-thiazolidin-5-ylidenemethyl)-4-(3-trifluoromethyl-benzyl)-4H-1,4-benzoxazin-3-one]
10 nM | O=C1NC(=S)SC1=Cc1ccc2c(c1)N(Cc1ccccc1-c1ccccc1)C(=O)CO2 [Example 159, 4-Biphenyl-2-ylmethyl-6-(4-oxo-2-thioxo-thiazolidin-5-ylidenemethyl)-4H-1,4-benzoxazin-3-one]
7 nM | O=C1NC(=S)SC1=Cc1ccc2c(c1)N(CCCc1ccccc1)C(=O)CO2 [Example 160, 6-(4-Oxo-2-thioxo-thiazolidin-5-ylidenemethyl)-4-(3-phenyl-propyl)-4H-1,4-benzoxazin-3-one]
4 nM | O=C1NC(=S)SC1=Cc1ccc2c(c1)N(CCCOc1ccccc1)C(=O)CO2 [Example 161, 6-(4-Oxo-2-thioxo-thiazolidin-5-ylidenemethyl)-4-(3-phenoxy-propyl)-4H-1,4-benzoxazin-3-one]
